According to publication PMC9848282, “Antinociceptive activity of doliroside B” (Pharmaceutical Biology, 2023):
“And” between values parts separate entries of the source, which are not always exact repeats. Equal entries are not always repeated.

Tests used:
[1] = tested on: formalin-induced nociception in mice; experiment: Formalin test; format: in vivo
[2] = tested on: acetic acid-induced writhing in Kunming mice; experiment: Acetic acid-induced writhing test; format: in vivo; conditions: for effect of NAL on the reduction of writhing number: absence vs presence of NAL 5 mg/kg i.p., MOP 1, IND 10, ASA 100, DB 5, DBDS 5 mg/kg, Figure 4; for fold weaker than DBDS (ED50): writhing test, ED50 compared with DBDS; for ED50: Mus musculus, read-out: ED50 (median effective dose)
[3] = tested on: hot plate-induced nociception in mice; experiment: Eddy's hot plate test; format: in vivo
Description: Female Kunming mice (20 ± 2 g) from Chengdu Dossy Experiment Animal Co., Ltd. (Sichuan, China) were used for antinociceptive experiments. These animals were kept under a constant temperature (23 ± 1 °C), humidity (40–70%), airflow speed ([…]) and noise (≤ 60 db), and maintained under a 12 h light-dark cycle. After the experiment is completed, mice were euthanized humanely. All the animal experiments were approved by the Institutional Animal Care and Use Committee of Yunnan Minzu University (permit no. 20200608).
This was performed according to a previously reported procedure (Eddy and Leimbach [1953]). The pain threshold was defined as the duration from the beginning of placing mice on the plate to the mice jumping, licking, or shaking its paws. Because the scrotum of male mice is saggy, which can be stimulated by hot plate, healthy female mice with pain threshold less than 20 s were used for hot plate test. […] After administration of the test compounds, the pain threshold was recorded at 0, 30, 60, 90, and 120 min. Among the tests in the absence and presence of NAL (5 mg/kg), i.p. injection of NAL was performed 10 min before administration of testing compounds. […]

Nav1.2 = Nav1.2 (Homo sapiens, UniProt Q99250); format: cell-based
TRPV1 channel = TRPV1 channel (Homo sapiens, UniProt Q8NER1); experiment: cell-based; format: cell-based
NO production = experiment: cells; format: cell-based; conditions: Mus musculus, RAW264.7; 25 µmol/L (positive control); LPS-stimulated, 24 h
[4] = formalin test, absence vs presence of NAL 5 mg/kg i.p., MOP 1, IND 10, ASA 100, DB 20, DBDS 20 mg/kg, Figure 5
[5] = hot plate test, absence vs presence of NAL 5 mg/kg i.p.

Chain of TRPV1 channel (Q8NER1 whole entry): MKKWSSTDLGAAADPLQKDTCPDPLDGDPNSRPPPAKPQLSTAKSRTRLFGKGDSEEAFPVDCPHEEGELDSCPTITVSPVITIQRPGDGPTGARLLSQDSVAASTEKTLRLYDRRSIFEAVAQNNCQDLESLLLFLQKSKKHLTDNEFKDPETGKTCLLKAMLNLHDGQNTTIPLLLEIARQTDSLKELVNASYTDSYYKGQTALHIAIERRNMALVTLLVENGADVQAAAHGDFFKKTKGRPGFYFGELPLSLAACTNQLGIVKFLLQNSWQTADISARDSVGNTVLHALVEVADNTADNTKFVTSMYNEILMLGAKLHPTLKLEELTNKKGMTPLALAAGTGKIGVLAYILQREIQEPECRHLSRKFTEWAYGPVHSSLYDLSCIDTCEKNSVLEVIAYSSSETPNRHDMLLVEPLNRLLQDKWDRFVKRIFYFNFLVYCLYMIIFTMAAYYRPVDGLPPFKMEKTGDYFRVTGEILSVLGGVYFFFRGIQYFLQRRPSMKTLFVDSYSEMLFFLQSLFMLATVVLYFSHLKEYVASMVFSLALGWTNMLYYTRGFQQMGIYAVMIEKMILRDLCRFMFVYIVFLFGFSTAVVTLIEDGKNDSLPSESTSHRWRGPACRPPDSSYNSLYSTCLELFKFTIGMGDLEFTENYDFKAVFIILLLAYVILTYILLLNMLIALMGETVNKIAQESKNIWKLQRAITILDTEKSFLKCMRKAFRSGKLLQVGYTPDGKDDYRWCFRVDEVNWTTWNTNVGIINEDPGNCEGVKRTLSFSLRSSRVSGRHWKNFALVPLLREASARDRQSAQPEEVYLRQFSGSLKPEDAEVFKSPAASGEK
Chain of Nav1.2 (Q99250 whole entry): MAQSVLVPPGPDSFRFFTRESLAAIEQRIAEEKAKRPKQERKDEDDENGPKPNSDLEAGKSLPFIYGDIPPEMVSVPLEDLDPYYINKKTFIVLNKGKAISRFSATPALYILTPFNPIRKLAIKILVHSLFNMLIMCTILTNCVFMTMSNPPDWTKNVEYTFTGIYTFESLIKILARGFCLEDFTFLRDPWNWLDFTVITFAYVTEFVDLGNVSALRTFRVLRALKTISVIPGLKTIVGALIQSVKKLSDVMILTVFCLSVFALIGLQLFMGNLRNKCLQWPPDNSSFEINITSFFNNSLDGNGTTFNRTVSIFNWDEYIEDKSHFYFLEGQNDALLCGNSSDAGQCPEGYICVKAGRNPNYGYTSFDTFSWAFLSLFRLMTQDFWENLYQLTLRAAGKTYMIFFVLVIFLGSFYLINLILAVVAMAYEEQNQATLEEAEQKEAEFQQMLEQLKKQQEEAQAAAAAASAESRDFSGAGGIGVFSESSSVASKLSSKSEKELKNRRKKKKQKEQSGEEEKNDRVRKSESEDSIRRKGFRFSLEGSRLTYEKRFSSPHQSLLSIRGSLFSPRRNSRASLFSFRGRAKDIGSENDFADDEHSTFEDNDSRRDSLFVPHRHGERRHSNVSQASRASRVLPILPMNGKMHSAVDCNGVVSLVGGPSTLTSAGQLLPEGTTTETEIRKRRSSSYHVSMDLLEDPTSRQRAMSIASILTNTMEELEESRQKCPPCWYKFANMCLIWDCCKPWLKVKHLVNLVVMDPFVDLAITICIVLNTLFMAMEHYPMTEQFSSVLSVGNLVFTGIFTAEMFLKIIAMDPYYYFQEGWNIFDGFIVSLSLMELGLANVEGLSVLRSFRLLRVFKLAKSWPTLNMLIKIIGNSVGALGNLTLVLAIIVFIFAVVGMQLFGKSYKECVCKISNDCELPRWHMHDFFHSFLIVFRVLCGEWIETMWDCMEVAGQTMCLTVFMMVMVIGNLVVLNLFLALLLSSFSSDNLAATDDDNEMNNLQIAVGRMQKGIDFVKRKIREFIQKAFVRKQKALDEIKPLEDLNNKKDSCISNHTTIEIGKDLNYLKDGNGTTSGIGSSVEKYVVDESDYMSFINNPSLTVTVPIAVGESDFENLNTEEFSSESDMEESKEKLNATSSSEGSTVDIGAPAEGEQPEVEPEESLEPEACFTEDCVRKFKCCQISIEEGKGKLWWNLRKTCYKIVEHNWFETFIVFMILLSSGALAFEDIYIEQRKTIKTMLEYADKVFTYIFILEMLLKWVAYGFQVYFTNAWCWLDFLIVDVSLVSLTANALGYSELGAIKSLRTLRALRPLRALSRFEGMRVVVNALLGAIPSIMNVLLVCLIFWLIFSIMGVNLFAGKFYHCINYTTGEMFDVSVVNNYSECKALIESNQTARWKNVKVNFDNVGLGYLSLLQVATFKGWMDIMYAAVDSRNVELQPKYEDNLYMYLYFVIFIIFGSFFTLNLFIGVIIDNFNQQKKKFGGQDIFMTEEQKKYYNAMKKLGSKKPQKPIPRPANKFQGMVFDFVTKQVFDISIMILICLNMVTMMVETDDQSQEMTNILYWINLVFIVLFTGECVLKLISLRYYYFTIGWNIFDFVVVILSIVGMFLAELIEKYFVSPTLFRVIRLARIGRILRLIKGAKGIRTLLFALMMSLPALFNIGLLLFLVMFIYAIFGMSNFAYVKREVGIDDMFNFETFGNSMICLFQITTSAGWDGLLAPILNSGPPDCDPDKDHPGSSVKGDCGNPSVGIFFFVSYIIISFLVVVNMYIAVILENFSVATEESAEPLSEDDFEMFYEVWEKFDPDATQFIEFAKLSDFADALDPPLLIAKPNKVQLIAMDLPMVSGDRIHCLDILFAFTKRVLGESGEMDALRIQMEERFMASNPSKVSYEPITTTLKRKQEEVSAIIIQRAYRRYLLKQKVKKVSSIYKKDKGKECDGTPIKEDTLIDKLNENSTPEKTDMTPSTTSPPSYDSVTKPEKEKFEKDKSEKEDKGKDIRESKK

With doliroside B [DB] the “effect of NAL on the antinociceptive effect” value [1, 4] was “not effectively removed by NAL”, the “inhibition of writhing number” value ([2]; 5 mg/kg oral, dose-response Figure 1(B-D)) was 58.7% and the “effect of NAL on the reduction of writhing number” value [2] was “Only a minor difference”. For the same compound, the “ED50 (median effective dose)” value ([2]; writhing test in mice) was 4.68 mg/kg, the “fold weaker than DBDS (ED50)” value [2] was roughly 4 fold and the Pain threshold ([3]; 2.5 mg/kg, 0 min, Table 1) was 12.0 ± 4.4 s. For the same compound, the Pain threshold ([3]; 2.5 mg/kg, 30 min, Table 1) was 12.1 ± 3.7 s, the Pain threshold ([3]; 2.5 mg/kg, 60 min, Table 1) was 12.7 ± 4.4 s and the Pain threshold ([3]; 2.5 mg/kg, 90 min, Table 1) was 14.2 ± 4.7 s. For the same compound, the Pain threshold ([3]; 2.5 mg/kg, 120 min, Table 1) was 12.4 ± 3.4 s, the Pain threshold ([3]; 5 mg/kg, 0 min, Table 1) was 11.4 ± 2.9 s and the Pain threshold ([3]; 5 mg/kg, 30 min, Table 1) was 12.0 ± 3.4 s. It also gave a Pain threshold ([3]; 5 mg/kg, 60 min, Table 1) of 10.2 ± 2.9 s, a Pain threshold ([3]; 5 mg/kg, 90 min, Table 1) of 12.6 ± 3.6 s and a Pain threshold ([3]; 5 mg/kg, 120 min, Table 1) of 10.9 ± 3.7 s. It also gave a Pain threshold ([3]; 10 mg/kg, 0 min, Table 1) of 10.4 ± 3.0 s, a Pain threshold ([3]; 10 mg/kg, 30 min, Table 1) of 14.6 ± 4.9 s and a Pain threshold ([3]; 10 mg/kg, 60 min, Table 1) of 16.4 ± 6.2 s. For the same compound, the Pain threshold ([3]; 10 mg/kg, 90 min, Table 1) was 15.6 ± 4.2 s, the Pain threshold ([3]; 10 mg/kg, 120 min, Table 1) was 12.6 ± 3.7 s and the Pain threshold ([3]; 20 mg/kg, absence of NAL, 0 min, Table 2) was 11.8 ± 3.3 s. For the same compound, the Pain threshold ([3]; 20 mg/kg, absence of NAL, 30 min, Table 2) was 19.6 ± 4.2 s, the Pain threshold ([3]; 20 mg/kg, absence of NAL, 60 min, Table 2) was 21.7 ± 5.9 s and the Pain threshold ([3]; 20 mg/kg, absence of NAL, 90 min, Table 2) was 18.0 ± 5.6 s. For the same compound, the Pain threshold ([3]; 20 mg/kg, absence of NAL, 120 min, Table 2) was 15.2 ± 4.6 s, the Pain threshold ([3]; 20 mg/kg, 0 min, Table 1) was 11.8 ± 3.3 s and the Pain threshold ([3]; 20 mg/kg, 30 min, Table 1) was 18.8 ± 3.6 s. The Pain threshold ([3]; 20 mg/kg, 60 min, Table 1) was 19.7 ± 5.3 s, the Pain threshold ([3]; 20 mg/kg, 90 min, Table 1) was 18.1 ± 6.3 s and the Pain threshold ([3]; 20 mg/kg, 120 min, Table 1) was 13.8 ± 4.2 s. For the same compound, the “effect of NAL on the antinociceptive effect” value [3, 5] was “not effectively removed by NAL”.

In the case of `COc1ccc2c(c1)c(CC(=O)O)c(C)n2C(=O)c1ccc(Cl)cc1` [IND, indomethacin], the “effect of NAL on the antinociceptive effect” value [1, 4] is reported as “not effectively removed by NAL”, the “inhibition of licking time” value ([1]; late phase (15-30 min), 10 mg/kg i.g.) is reported as 57.3% and the “inhibition of writhing number” value ([2]; 10 mg/kg oral, Figure 1(A) experiment) is reported as 58.7%. The “inhibition of writhing number” value ([2]; 20 mg/kg, dose-response Figure 1(D)) was 76.1%, the ED50 ([2]; writhing test in mice) was 5.91 mg/kg and the “effect of NAL on the reduction of writhing number” value [2] was “Only a minor difference”. For the same compound, the “fold weaker than DBDS (ED50)” value [2] was “approximately 5 fold”, the Pain threshold ([3]; 10 mg/kg, absence of NAL, 0 min, Table 2) was 12.1 ± 2.9 s and the Pain threshold ([3]; 10 mg/kg, absence of NAL, 30 min, Table 2) was 11.7 ± 3.0 s. The Pain threshold ([3]; 10 mg/kg, absence of NAL, 60 min, Table 2) was 11.6 ± 2.2 s, the Pain threshold ([3]; 10 mg/kg, absence of NAL, 90 min, Table 2) was 10.7 ± 2.1 s and the Pain threshold ([3]; 10 mg/kg, absence of NAL, 120 min, Table 2) was 12.0 ± 3.2 s. For the same compound, the Pain threshold ([3]; 10 mg/kg, 0 min, Table 1) was 11.3 ± 2.8 s, the Pain threshold ([3]; 10 mg/kg, 30 min, Table 1) was 11.7 ± 3.4 s and the Pain threshold ([3]; 10 mg/kg, 60 min, Table 1) was 12.5 ± 3.0 s. The Pain threshold ([3]; 10 mg/kg, 90 min, Table 1) was 12.1 ± 2.9 s, the Pain threshold ([3]; 10 mg/kg, 120 min, Table 1) was 10.9 ± 2.9 s and the “effect of NAL on the antinociceptive effect” value [3, 5] was “not effectively removed by NAL”.

In the case of `CN1CC[C@]23c4c5ccc(O)c4O[C@H]2[C@@H](O)C=C[C@H]3[C@H]1C5` [MOP, morphine], the “effect of NAL on the antinociceptive effect” value ([1]; mouse, in vivo) is reported as “removed by NAL”, the “inhibition of licking time” value ([1]; mouse, in vivo, ip, 1 mg/kg) is reported as 55.3% and 75.9% and the “effect of NAL on the antinociceptive effect” value ([3]; mouse, in vivo) is reported as “removed by NAL”.

With `CC(=O)Oc1ccccc1C(=O)O` [ASA, Acetylsalicylic acid] the “effect of NAL on the antinociceptive effect” value [1, 4] was “not effectively removed by NAL”, the “inhibition of licking time” value ([1]; late phase (15-30 min), 100 mg/kg i.g.) was 64.8% and the “inhibition of writhing number” value ([2]; 100 mg/kg oral, Figure 1(A) experiment) was 61.2%. The “inhibition of writhing number” value ([2]; 200 mg/kg, dose-response Figure 1(E)) was 73.3%, the ED50 ([2]; writhing test in mice) was 70.1 mg/kg and the “effect of NAL on the reduction of writhing number” value [2] was “Only a minor difference”. The Pain threshold ([3]; 100 mg/kg, absence of NAL, 30 min, Table 2) was 20.3 ± 5.9 s, the Pain threshold ([3]; 100 mg/kg, absence of NAL, 60 min, Table 2) was 19.8 ± 3.2 s and the Pain threshold ([3]; 100 mg/kg, absence of NAL, 90 min, Table 2) was 14.1 ± 4.3 s. For the same compound, the Pain threshold ([3]; 100 mg/kg, 30 min, Table 1) was 18.6 ± 5.2 s, the Pain threshold ([3]; 100 mg/kg, 60 min, Table 1) was 17.8 ± 3.3 s and the Pain threshold ([3]; 100 mg/kg, 90 min, Table 1) was 12.9 ± 4.0 s. For the same compound, the Pain threshold ([3]; 100 mg/kg, 120 min, Table 1) was 10.6 ± 2.8 s and the “effect of NAL on the antinociceptive effect” value [3, 5] was “not effectively removed by NAL”.

With `NC1=N[C@H](O)[C@H]2[C@H]3O[C@]4(O)O[C@@H]([C@@H](O)[C@@]2(N1)[C@@H]4O)[C@]3(O)CO` [TTX, Tetrodotoxin] the IC50 (Nav1.2) was 0.016 ± 0.015 µM.

In the case of `COc1cc(CNC(=O)CCCC/C=C/C(C)C)ccc1O` [capsaicin], the “direct effect on TRPV1 activity (compound alone)” value (TRPV1 channel; compound alone) is reported as “induced a significant activation”.

`Oc1cc2c(cc1O)CN(C(=S)NCCc1ccc(Cl)cc1)CCC2` [capsazepine] showed an IC50 (TRPV1 channel; TRPV1 inhibitor control) of 7.3 ± 0.06 µM.

`[H]/N=C(/NC)NCCC[C@H](N)C(=O)O` [L-NMMA, NG-Monomethyl-L-arginine acetate] was tested, and the inhibition at 25 µM (NO production) was 73%.
